Data taken from patent US20120029190A1, “COMPOUNDS FOR TREATING DISORDERS MEDIATED BY METABOTROPIC GLUTAMATE RECEPTOR 5, AND METHODS OF USE THEREOF” (priority 2009, published 2012).

molecular target: T1, human recombinant mGluR5 receptor (Homo sapiens, UniProt P41594); test: mGluR5 in vitro functional assay (aequorin cell line, inhibition of glutamate EC80 response); assay type: cell-based; conditions: Table 1; aequorin cell line expressing human mGluR5, reference agonist glutamate at EC80; obtained in duplicate; read-out: IC50
T1 construct: expressed in transfected cells; expression induced with doxycycline
Protocol: B. mGluR5 In Vitro Functional Assay
The functional assay utilized an aequorin cell line expressing human recombinant mGluR5 receptor, an inducible cell line that expresses the human receptor under the control of a promoter induced by doxycycline.
mGluR5 cells in mid-log phase, grown 18 hours prior to the test in antibiotic-free media supplemented with doxycycline (600 ng/mL), were detached by gentle flushing with PBS-EDTA ([…]). The cells were recovered by centrifugation and resuspended in assay buffer (HBSS, […], 3 ug/mL glutamate-pyruvate transaminase, […] MEM sodium pyruvate, 0.1% BSA protease-free). Cells were incubated at room temperature for at least 4 hours with Coelenterazine h (Molecular Probes). The cell suspension (60 uL) containing the test compound was mixed with a solution of reference agonist (30 uL) at its EC80, following an incubation of 3 min. after the first injection. The resulting emission of light was recorded using a Hamamatsu Functional Drug Screening System 6000 (FDSS 6000). To standardize the emission of recorded light (determination of the “100% signal’) across plates and across different experiments, some of the wells contained 100 uM digitonin or a saturating concentration (20 mM) of ATP. Plates also contained the reference agonist (glutamate) at a concentration equivalent to the EC80 obtained during assay validation. Percentages of inhibition were calculated on the basis of the activation induced by the reference agonist at a concentration equal to the EC80. Dose-response data were analyzed with XLFit (IDBS) software using nonlinear regression applied to a sigmoidal dose-response model.

T1 sequence (P41594 21-1212): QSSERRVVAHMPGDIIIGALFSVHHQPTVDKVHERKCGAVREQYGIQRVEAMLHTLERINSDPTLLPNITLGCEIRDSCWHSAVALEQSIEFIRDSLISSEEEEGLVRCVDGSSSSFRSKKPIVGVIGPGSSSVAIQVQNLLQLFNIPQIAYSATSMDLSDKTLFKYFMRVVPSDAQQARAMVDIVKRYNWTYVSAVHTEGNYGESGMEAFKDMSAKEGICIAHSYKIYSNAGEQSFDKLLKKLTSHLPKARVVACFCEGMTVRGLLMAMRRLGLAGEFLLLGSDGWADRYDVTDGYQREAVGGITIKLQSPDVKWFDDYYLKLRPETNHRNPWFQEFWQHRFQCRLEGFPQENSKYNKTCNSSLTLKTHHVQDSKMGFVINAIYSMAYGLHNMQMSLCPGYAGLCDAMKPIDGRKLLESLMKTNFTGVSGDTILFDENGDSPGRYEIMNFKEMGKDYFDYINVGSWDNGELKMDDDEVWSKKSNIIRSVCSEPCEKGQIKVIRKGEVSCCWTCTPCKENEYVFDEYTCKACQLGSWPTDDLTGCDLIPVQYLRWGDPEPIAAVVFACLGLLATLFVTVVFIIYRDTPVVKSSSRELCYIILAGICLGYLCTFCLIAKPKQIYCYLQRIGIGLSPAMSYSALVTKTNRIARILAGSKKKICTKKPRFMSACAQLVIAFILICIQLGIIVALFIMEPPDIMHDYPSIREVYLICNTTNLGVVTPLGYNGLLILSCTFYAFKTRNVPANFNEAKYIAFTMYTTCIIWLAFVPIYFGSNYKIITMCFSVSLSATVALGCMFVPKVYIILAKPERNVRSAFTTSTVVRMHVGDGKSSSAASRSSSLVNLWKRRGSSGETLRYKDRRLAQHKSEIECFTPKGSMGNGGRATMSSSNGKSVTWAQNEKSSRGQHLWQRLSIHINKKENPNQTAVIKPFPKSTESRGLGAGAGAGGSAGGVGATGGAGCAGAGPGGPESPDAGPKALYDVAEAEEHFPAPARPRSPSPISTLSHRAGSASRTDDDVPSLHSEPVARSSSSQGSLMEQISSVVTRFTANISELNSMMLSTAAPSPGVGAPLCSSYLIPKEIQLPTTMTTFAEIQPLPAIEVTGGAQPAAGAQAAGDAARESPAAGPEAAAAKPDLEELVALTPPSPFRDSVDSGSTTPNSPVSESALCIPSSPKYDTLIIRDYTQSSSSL

SMILES | IC50
N#Cc1cccc(-c2nc3c(o2)CN(c2ncccc2C#N)C3)c1 [Compound 87, 2-(2-(3-Cyanophenyl)-4H-pyrrolo[3,4-d]oxazol-5(6H)-yl)nicotinonitrile] | < 1000 nM
CC1CN(c2cc(F)cc(C#N)c2)Cc2oc(-c3ccccn3)nc21 (racemic) [Compound 81, (+/−)-3-Fluoro-5-(7-methyl-2-(pyridin-2-yl)-6,7-dihydrooxazolo[5,4-c]pyridin-5(4H)-yl)benzonitrile] | < 1000 nM
COc1ccc(-c2nc3c(o2)CCN(c2cnccn2)C3)cc1 [Compound 42, 2-(4-Methoxyphenyl)-5-(pyrazin-2-yl)-4,5,6,7-tetrahydrooxazolo[4,5-c]pyridine] | > 10000 nM
Cc1cc(-c2nc3c(o2)CCN(c2ccccn2)C3)on1 [Compound 79, 2-(3-Methylisoxazol-5-yl)-5-(pyridin-2-yl)-4,5,6,7-tetrahydrooxazolo[4,5-c]pyridine] | > 10000 nM
c1ccc(-c2nc3c(o2)CCN(c2ccccn2)C3)cc1 [Compound 38, 2-Phenyl-5-(pyridin-2-yl)-4,5,6,7-tetrahydrooxazolo-[4,5-c]pyridine] | < 10000 nM
N#Cc1cccc(N2CCc3nc(-c4cccc[n+]4[O-])oc3C2)c1 [Compound 15, 2-(5-(3-Cyanophenyl)-4,5,6,7-tetrahydrooxazolo[5,4-c]pyridin-2-yl)pyridine 1-oxide] | < 1000 nM
N#Cc1cccc(-c2nc3c(o2)CN(c2ncccc2C#N)CC3)c1 [Compound 66, 2-(2-(3-Cyanophenyl)-6,7-dihydrooxazolo[5,4-c]pyridin-5(4H)-yl)nicotinonitrile] | < 10000 nM
Clc1cccc(-c2nc3c(o2)CCN(c2ccccn2)C3)c1 [Compound 40, 2-(3-Chlorophenyl)-5-(pyridin-2-yl)-4,5,6,7-tetrahydrooxazolo[4,5-c]pyridine] | < 1000 nM
N#Cc1cc(F)cc(N2CCc3nc(-c4ccccc4)oc3C2)c1 [Compound 21, 3-Fluoro-5-(2-phenyl-6,7-dihydrooxazolo[5,4-c]pyridin-5(4H)-yl)benzonitrile] | < 1000 nM
COc1ccc(-c2nc3c(o2)CCN(c2ncccc2C#N)C3)cc1 [Compound 43, 2-(2-(4-Methoxyphenyl)-6,7-dihydrooxazolo[4,5-c]pyridin-5(4H)-yl)nicotinonitrile] | > 10000 nM
Cc1cccc(-c2nc3c(o2)CCN(c2ccccn2)C3)c1 [Compound 60, 5-(Pyridin-2-yl)-2-m-tolyl-4,5,6,7-tetrahydrooxazolo-[4,5-c]pyridine] | < 1000 nM
N#Cc1cc(N2CCOCC2)cc(N2CCc3nc(-c4ccccn4)oc3C2)c1 [Compound 11, 3-Morpholino-5-(2-(pyridin-2-yl)-6,7-dihydrooxazolo[5,4-c]pyridin-5(4H)-yl)benzonitrile] | > 10000 nM
CC1Cc2nc(-c3ccccn3)oc2CN1c1cc(F)cc(C#N)c1 (stereo not shown) [Compound 83, 3-Fluoro-5-(6-methyl-2-(pyridin-2-yl)-6,7-dihydrooxazolo[5,4-c]pyridin-5(4H)-yl)benzonitrile] | < 1000 nM

Now from value to compound:

IC50 | SMILES
< 10000 nM | N#Cc1cccnc1N1CCc2nc(-c3ccccc3Cl)oc2C1 [Compound 69, 2-(2-(2-Chlorophenyl)-6,7-dihydrooxazolo[5,4-c]pyridin-5(4H)-yl)nicotinonitrile]
< 1000 nM | N#Cc1cccnc1N1CCc2nc(-c3ccccn3)oc2C1 [Compound 3, 2-(2-(Pyridin-2-yl)-6,7-dihydrooxazolo[5,4-c]pyridin-5(4H)-yl)nicotinonitrile]
> 10000 nM | c1ccc(-c2nc3c(o2)CN(c2ccccn2)CC3)cc1 [Compound 20, 2-Phenyl-5-(pyridin-2-yl)-4,5,6,7-tetrahydrooxazolo-[5,4-c]pyridine]
> 10000 nM | c1ccc(-c2nc3c(o2)CN(c2cccnc2)CC3)nc1 [Compound 5, 2-(Pyridin-2-yl)-5-(pyridin-3-yl)-4,5,6,7-tetrahydrooxazolo[5,4-c]pyridine]
< 10000 nM | COc1cccc(-c2nc3c(o2)CN(c2ccccn2)CC3)c1 [Compound 71, 2-(3-Methoxyphenyl)-5-(pyridin-2-yl)-4,5,6,7-tetrahydrooxazolo[5,4-c]pyridine]
< 1000 nM | N#Cc1cc(N2CCCc3nc(-c4ccccn4)oc3C2)cc(C(F)(F)F)c1 [Compound 94, 3-(2-(Pyridin-2-yl)-7,8-dihydro-4H-oxazolo[5,4-c]azepin-5(6H)-yl)-5-(trifluoromethyl)benzonitrile]
< 10000 nM | Clc1ccccc1-c1nc2c(o1)CN(c1ccccn1)CC2 [Compound 68, 2-(2-Chlorophenyl)-5-(pyridin-2-yl)-4,5,6,7-tetrahydrooxazolo[5,4-c]pyridine]
< 1000 nM | N#Cc1cccc(N2CCCc3nc(-c4ncccn4)oc3C2)c1 [Compound 92, 3-(2-(Pyrimidin-2-yl)-7,8-dihydro-4H-oxazolo[5,4-c]azepin-5(6H)-yl)benzonitrile]
< 1000 nM | N#Cc1cccc(CN2CCc3oc(-c4ccccn4)nc3C2)c1 [Compound 34]
< 1000 nM | N#Cc1cccc(N2CCc3nc(-c4ccccn4)oc3C2)c1 [Compound 1, 3-(2-(Pyridin-2-yl)-6,7-dihydrooxazolo[5,4-c]pyridin-5(4H)-yl)benzonitrile]

same assay, conditions: Table 2; aequorin cell line expressing human mGluR5, reference agonist glutamate at EC80; obtained in duplicate; read-out: IC50

SMILES | IC50
Clc1cccc(N2CCCc3oc(-c4ccncn4)nc3C2)c1 [Compound 137, 5-(3-chlorophenyl)-2-(pyrimidin-4-yl)-5,6,7,8-tetrahydro-4H-oxazolo[4,5-c]azepine] | < 1000 nM
CC(C)(c1ccccn1)c1nc2c(o1)CCN(c1cc(F)cc(C#N)c1)C2 [Compound 195, 3-Fluoro-5-(2-(2-(pyridin-2-yl)propan-2-yl)-6,7-dihydrooxazolo[4,5-c]pyridin-5(4H)-yl)benzonitrile] | > 10000 nM
N#Cc1cc(F)cc(N2CCc3oc(-c4ccncn4)nc3C2)c1 [Compound 118, 3-fluoro-5-(2-(pyrimidin-4-yl)-6,7-dihydrooxazolo[4,5-c]pyridin-5(4H)-yl)benzonitrile] | < 1000 nM
Fc1ccc(-c2nc3c(o2)CCN(c2cccc(Cl)c2)C3)nc1 [Compound 125, 5-(3-chlorophenyl)-2-(5-fluoropyridin-2-yl)-4,5,6,7-tetrahydrooxazolo[4,5-c]pyridine] | < 1000 nM
N#Cc1cc(F)cc(C2CCc3oc(-c4ccccn4)nc3C2)c1 (stereo not shown) [Compound 222, 3-Fluoro-5-(2-(pyridin-2-yl)-4,5,6,7-tetrahydrobenzo[d]oxazol-5-yl)benzonitrile] | < 1000 nM
Clc1cncc(N2CCCc3oc(-c4ncccn4)nc3C2)c1 [Compound 201, 5-(5-Chloropyridin-3-yl)-2-(pyrimidin-2-yl)-5,6,7,8-tetrahydro-4H-oxazolo[4,5-c]azepine] | < 10000 nM
Cc1cccnc1-c1nc2c(o1)CCN(c1cccc(Cl)c1)C2 [Compound 123, 5-(3-chlorophenyl)-2-(3-methylpyridin-2-yl)-4,5,6,7-tetrahydrooxazolo[4,5-c]pyridine] | > 10000 nM
Clc1ccccc1[C@@H]1CCc2oc(-c3ccccn3)nc2C1 (single isomer, unassigned) [Compound 220] | < 1000 nM
Cc1cccnc1-c1nc2c(o1)CCN(c1cccc(F)c1)C2 [Compound 122, 5-(3-fluorophenyl)-2-(3-methylpyridin-2-yl)-4,5,6,7-tetrahydrooxazolo[4,5-c]pyridine] | > 10000 nM
Fc1cccc(N2CCCc3oc(-c4ccncn4)nc3C2)c1 [Compound 136, 5-(3-fluorophenyl)-2-(pyrimidin-4-yl)-5,6,7,8-tetrahydro-4H-oxazolo[4,5-c]azepine] | < 1000 nM
Fc1cc(Cl)cc(N2CCCc3oc(-c4ncccn4)nc3C2)c1 [Compound 202, 5-(3-Chloro-5-fluorophenyl)-2-(pyrimidin-2-yl)-5,6,7,8-tetrahydro-4H-oxazolo[4,5-c]azepine] | < 1000 nM
N#Cc1cc(F)cc(N2CCCc3oc(-c4cnccn4)nc3C2)c1 [Compound 141, 3-fluoro-5-(2-(pyrazin-2-yl)-7,8-dihydro-4H-oxazolo[4,5-c]azepin-5(6H)-yl)benzonitrile] | < 1000 nM

Second part, the compound after the results:

IC50 | SMILES
< 10000 nM | Clc1cnccc1N1CCc2oc(-c3ccccn3)nc2C1 [Compound 184, 5-(3-Chloropyridin-4-yl)-2-(pyridin-2-yl)-4,5,6,7-tetrahydrooxazolo[4,5-c]pyridine]
< 1000 nM | Fc1ccc(N2CCc3oc(-c4ccccn4)nc3C2)c(Cl)c1 [Compound 171, 5-(2-Chloro-4-fluorophenyl)-2-(pyridin-2-yl)-4,5,6,7-tetrahydrooxazolo[4,5-c]pyridine]
< 1000 nM | Clc1ccc(N2CCc3oc(-c4ccccn4)nc3C2)cc1 [Compound 157, 5-(4-Chlorophenyl)-2-(pyridin-2-yl)-4,5,6,7-tetrahydrooxazolo[4,5-c]pyridine]
< 10000 nM | N#Cc1cccc(N2CCc3nc(-c4ccccc4)oc3C2)c1 [Compound 148, 3-(2-Phenyl-6,7-dihydrooxazolo[5,4-c]pyridin-5(4H)-yl)benzonitrile]
< 1000 nM | Fc1ccc(N2CCCc3oc(-c4ccccn4)nc3C2)cc1F [Compound 197, 5-(3,4-Difluorophenyl)-2-(pyridin-2-yl)-5,6,7,8-tetrahydro-4H-oxazolo[4,5-c]azepine]
